The record followed here is ChEMBL document CHEMBL3351228, “Synthesis and biological evaluation of novel pyrimidine-benzimidazol hybrids as potential anticancer agents” (Bioorg Med Chem Lett, 2014).

Type in all cases: functional
For assay [1], the system named is MGC-803. The assay is described as follows: Induction of apoptosis in human MGC803 cells assessed as early apoptotic cell level at 0.4 umol/L after 24 hrs by annexin V and propidium iodide double staining based flow cytometry (reference value: 5.2%). Background: A flow cytometer gives signals particle by particle.
The test system of assay [2] is MGC-803. The assay is described as follows: Induction of cell cycle arrest in human MGC803 cells assessed as accumulation at G0/G1 phase at 1.6 umol/L after 12 hrs by propidium iodide double staining based flow cytometry (reference value: 41.38%).
Assay [3] concerns MGC-803. The assay is described as follows: Induction of apoptosis in human MGC803 cells assessed as late apoptotic cell level at 1.6 umol/L after 12 hrs by annexin V and propidium iodide double staining based flow cytometry (reference value: 2.6%).
Assay [4] concerns MGC-803. The assay is described as follows: Induction of apoptosis in human MGC803 cells assessed as viable cell level at 0.4 umol/L after 24 hrs by annexin V and propidium iodide double staining based flow cytometry (reference value: 89.4%).
The subject of assay [5] is MGC-803. The assay can be described thus: Induction of apoptosis in human MGC803 cells assessed as early apoptotic cell level at 0.4 umol/L after 12 hrs by annexin V and propidium iodide double staining based flow cytometry (reference value: 4.8%).
Assay [6] relates to MGC-803. The assay is described as follows: Induction of apoptosis in human MGC803 cells assessed as early apoptotic cell level at 0.8 umol/L after 24 hrs by annexin V and propidium iodide double staining based flow cytometry (reference value: 5.2%).
In assay [7] the test system is MGC-803. The assay can be described thus: Induction of cell cycle arrest in human MGC803 cells assessed as accumulation at G2/M phase at 0.8 umol/L after 24 hrs by propidium iodide double staining based flow cytometry (reference value: 12.89%).
Assay [8] concerns MGC-803. The assay is described as follows: Induction of apoptosis in human MGC803 cells assessed as viable cell level at 0.8 umol/L after 12 hrs by annexin V and propidium iodide double staining based flow cytometry (reference value: 91.0%).
Assay [9] relates to MGC-803. The assay can be described thus: Induction of apoptosis in human MGC803 cells assessed as necrosis cell level at 0.4 umol/L after 24 hrs by annexin V and propidium iodide double staining based flow cytometry (reference value: 0.1%).
For assay [10], the system named is MGC-803. The assay can be described thus: Induction of cell cycle arrest in human MGC803 cells assessed as accumulation at S phase at 0.4 umol/L after 24 hrs by propidium iodide double staining based flow cytometry (reference value: 43.02%).
Assay [11] relates to MGC-803. The assay can be described thus: Induction of cell cycle arrest in human MGC803 cells assessed as accumulation at S phase at 1.6 umol/L after 12 hrs by propidium iodide double staining based flow cytometry (reference value: 41.69%).
For assay [12], the system named is MGC-803. The assay can be described thus: Induction of apoptosis in human MGC803 cells assessed as necrosis cell level at 1.6 umol/L after 12 hrs by annexin V and propidium iodide double staining based flow cytometry (reference value: 1.5%).

On to `COc1ccc(Nc2cc(-c3ccccc3)nc(SCc3nc4cc(Cl)ccc4[nH]3)n2)cc1`, for which the Activity in the assay on MGC-803 [1] stood at 25.4%; with MGC-803 [2], 8.2%; with MGC-803 [3], 17.5%; with MGC-803 [4], 64.2%; in the assay with MGC-803 [5], 15.9%; with MGC-803 [6], 49.2%. Further, the Activity is reported as 68.97% with MGC-803 [7]; 68.7% in the assay with MGC-803 [8]; 0.6% in the assay on MGC-803 [9]; 31.54% in the assay with MGC-803 [10]; 24.84% with MGC-803 [11]; 1% with MGC-803 [12].
